# In patent publication US20240190874A1, “SMALL MOLECULE DEGRADERS OF ANDROGEN RECEPTOR” (THE REGENTS OF THE UNIVERSITY OF MICHIGAN, priority 2021, published 2024):
# Assays:
# Format in all cases: cell-based
# LNCaP cells = test: Cellular potency (IC50) in LNCaP cells; conditions: Homo sapiens, LNCaP
# Protocol: (§1) Biological Assays. LNCaP and VCaP cells used were purchased from American Type Culture Collection (ATCC). LNCaP were grown in RPMI 1640 (Invitrogen) and VCaP cells were grown in DMEM with Glutamax (Invitrogen). All of the cells were supplemented with 10% fetal bovine serum (Invitrogen) at 37° C. in a humidified 5% CO2 incubator.
# VCaP cells = test: Cellular potency (IC50) in VCaP cells; conditions: Homo sapiens, VCaP
# Protocol: as §1
# AR = biological target: T1, AR (Homo sapiens, UniProt P10275); test: Degradation of AR in VCaP cells; conditions: VCaP cells; for Dmax: VCaP
# T1 construct: Degradation of AR; Cellular potency; host or cells: VCaP cells
# T1 sequence (P10275 1-920): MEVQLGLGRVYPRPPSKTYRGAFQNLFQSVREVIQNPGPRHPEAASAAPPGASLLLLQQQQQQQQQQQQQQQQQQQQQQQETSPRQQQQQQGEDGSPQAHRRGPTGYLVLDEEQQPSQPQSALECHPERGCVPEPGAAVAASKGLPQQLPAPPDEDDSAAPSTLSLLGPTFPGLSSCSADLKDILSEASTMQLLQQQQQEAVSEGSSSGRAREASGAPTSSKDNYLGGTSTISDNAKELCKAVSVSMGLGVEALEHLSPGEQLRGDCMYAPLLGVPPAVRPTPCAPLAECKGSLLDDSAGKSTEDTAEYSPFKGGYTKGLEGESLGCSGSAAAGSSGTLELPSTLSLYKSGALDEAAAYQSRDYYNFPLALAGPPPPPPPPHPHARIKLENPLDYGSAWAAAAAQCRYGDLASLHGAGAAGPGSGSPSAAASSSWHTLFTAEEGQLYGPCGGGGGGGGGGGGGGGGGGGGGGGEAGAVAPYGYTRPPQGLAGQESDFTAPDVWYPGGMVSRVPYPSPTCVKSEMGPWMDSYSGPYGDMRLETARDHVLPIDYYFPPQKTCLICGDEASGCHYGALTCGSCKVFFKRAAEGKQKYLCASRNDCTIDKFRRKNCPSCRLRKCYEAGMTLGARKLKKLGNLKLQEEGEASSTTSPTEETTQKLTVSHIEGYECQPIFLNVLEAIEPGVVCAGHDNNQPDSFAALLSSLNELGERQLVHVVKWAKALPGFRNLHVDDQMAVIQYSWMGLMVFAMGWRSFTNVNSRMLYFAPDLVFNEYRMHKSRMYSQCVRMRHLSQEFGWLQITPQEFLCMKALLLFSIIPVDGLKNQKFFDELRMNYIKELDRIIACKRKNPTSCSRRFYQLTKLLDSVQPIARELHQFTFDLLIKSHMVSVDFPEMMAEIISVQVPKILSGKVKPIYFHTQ
# Protocol: as §1
SMILES,IC50 (LNCaP cells) [µM],IC50 (VCaP cells) [µM],DC50 (AR) [µM],Dmax (AR) [%]
C[C@H]1CC2(CCN(c3ccc(N4CCN(CC5CN(c6ccc7c(c6)C(=O)N(C6CCC(=O)NC6=O)C7=O)C5)CC4)nn3)CC2)CN1c1ccc(C#N)c(Cl)c1 (some centres unmarked) [compound 47],< 0.01,< 0.01,< 0.001,> 90
C[C@H]1CC2(CCN(c3ccc(N4CCN(CC5CCN(c6ccc7c(c6)C(=O)N(C6CCC(=O)NC6=O)C7=O)CC5)CC4)nn3)CC2)CN1c1ccc(C#N)c(Cl)c1 (some centres unmarked) [compound 48],< 0.01,< 0.01,< 0.001,> 90
C[C@H]1CC2(CCN(c3cnc(N4CCN(CC5CN(c6ccc7c(c6)C(=O)N(C6CCC(=O)NC6=O)C7=O)C5)CC4)cn3)CC2)CN1c1ccc(C#N)c(Cl)c1 (some centres unmarked) [compound 49],< 0.01,< 0.01,< 0.001,> 90
C[C@H]1CC2(CCN(c3cnc(N4CCN(CC5CCN(c6ccc7c(c6)C(=O)N(C6CCC(=O)NC6=O)C7=O)CC5)CC4)cn3)CC2)CN1c1ccc(C#N)c(Cl)c1 (some centres unmarked) [compound 50],< 0.1,< 0.1,< 0.01,> 90
C[C@H]1CC2(CCN(c3ccc(N4CCC(CN5CCN(c6ccc7c(c6)C(=O)N(C6CCC(=O)NC6=O)C7=O)CC5)CC4)cn3)CC2)CN1c1ccc(C#N)c(Cl)c1 (some centres unmarked) [compound 51],< 0.1,< 0.1,< 0.01,> 90
C[C@H]1CC2(CCN(c3ccc(N4CCC(CN5Cc6cc7c(cc6C5)C(=O)N(C5CCC(=O)NC5=O)C7=O)CC4)cn3)CC2)CN1c1ccc(C#N)c(Cl)c1 (some centres unmarked) [compound 52],< 0.1,< 0.1,< 0.01,> 90
C[C@H]1CC2(CCN(c3ccc(N4CCC(CN5CCN(c6ccc7c(c6)C(=O)N(C6CCC(=O)NC6=O)C7=O)CC5)CC4)nc3)CC2)CN1c1ccc(C#N)c(Cl)c1 (some centres unmarked) [compound 53],< 0.1,< 0.1,< 0.01,> 90
C[C@H]1CC2(CCN(c3ccc(N4CCC(CN5Cc6cc7c(cc6C5)C(=O)N(C5CCC(=O)NC5=O)C7=O)CC4)nc3)CC2)CN1c1ccc(C#N)c(Cl)c1 (some centres unmarked) [compound 54],< 0.1,< 0.1,< 0.01,> 90
C[C@H]1CC2(CCN(c3ccc(N4CCC(CN5CCN(c6ccc7c(c6)C(=O)N(C6CCC(=O)NC6=O)C7=O)CC5)CC4)nn3)CC2)CN1c1ccc(C#N)c(Cl)c1 (some centres unmarked) [compound 55],< 0.1,< 0.1,< 0.01,> 90
C[C@H]1CC2(CCN(c3ccc(N4CCC(CN5Cc6cc7c(cc6C5)C(=O)N(C5CCC(=O)NC5=O)C7=O)CC4)nn3)CC2)CN1c1ccc(C#N)c(Cl)c1 (some centres unmarked) [compound 56],< 0.1,< 0.1,< 0.01,> 90
C[C@H]1CC2(CCN(c3ccc(OC4CCN(C5CN(c6ccc7c(c6)C(=O)N(C6CCC(=O)NC6=O)C7=O)C5)CC4)cc3)CC2)CN1c1ccc(C#N)c(Cl)c1 (some centres unmarked) [compound 57],< 0.01,< 0.01,< 0.001,> 90
C[C@H]1CC2(CCN(c3ccc(OC4CCN(C5CCN(c6ccc7c(c6)C(=O)N(C6CCC(=O)NC6=O)C7=O)CC5)CC4)cc3)CC2)CN1c1ccc(C#N)c(Cl)c1 (some centres unmarked) [compound 58],< 0.1,< 0.1,< 0.01,> 90
C[C@H]1CC2(CCN(c3ccc(OC4CN(C5CN(c6ccc7c(c6)C(=O)N(C6CCC(=O)NC6=O)C7=O)C5)C4)cc3)CC2)CN1c1ccc(C#N)c(Cl)c1 (some centres unmarked) [compound 59],< 0.01,< 0.01,< 0.001,> 90
C[C@H]1CC2(CCN(c3ccc(OC4CN(C5CCN(c6ccc7c(c6)C(=O)N(C6CCC(=O)NC6=O)C7=O)CC5)C4)cc3)CC2)CN1c1ccc(C#N)c(Cl)c1 (some centres unmarked) [compound 60],< 0.01,< 0.01,< 0.001,> 90
"C[C@H]1CC2(CCN(c3ccc(OC4CCN(C5CN(c6ccc7c(c6)C(=O)N(C6CCC(=O)NC6=O)C7=O)C5)CC4)cn3)CC2)CN1c1ccc(C#N)c(Cl)c1 (stereo partly drawn) [compound 61, 2-chloro-4-((3S)-8-(5-((1-(1-(2-(2,6-dioxopiperidin-3-yl)-1,3-dioxoisoindolin-5-yl)azetidin-3-yl)piperidin-4-yl)oxy)pyridin-2-yl)-3-methyl-2,8-diazaspiro-[4.5]decan-2-yl)benzonitrile]",< 0.01,< 0.01,–,> 90
